Experiments:
[1] = tested on: sympathetic and sensory neurons; settings: in vitro, previously shown (ref 17); cited from earlier work
[2] = tested on: TDP-43 mutant Zebra fish larvae; experiment: TDP-43 mutant Zebra fish larvae ALS model; assay type: in vivo; design: motor neuron axon length and NMJ formation: dose or concentration left out as unconfirmed
[3] = tested on: experimental diabetic neuropathy; experiment: Intraepidermal nerve fiber density (IENFD) in plantar skin of STZ-diabetic mice; assay type: in vivo
Description: The primary objective of these experiments was to determine the effect of oral Foretinib on cutaneous innervation density in an experimental diabetic neuropathy. The numbers of animals needed for these experiments were determined by power analysis based on preliminary experiments assessing the cutaneous innervation density in diabetic and non-diabetic mice. A 50% increased nerve fiber density compared to the diabetic control was considered scientifically relevant, requiring a minimum of n=5 animals per group to achieve a power of 0.9 when assuming a standard deviation (SD) of 0.01 for all groups (normally distributed, two-sided). Animals were randomly allocated to experimental groups prior to induction of diabetes and the investigators were blinded during outcome assessments. Two experimental animals allocated to the Foretinib treated group were excluded from the experiment after not responding to the STZ injections. No outliers were excluded from the analysis. After five weeks, the experiment was terminated because 4 of 8 animals reached a predefined humane endpoint of greater than 15% weight loss compared to their pre-diabetic weight. The scheduled experimental endpoint was 12 weeks post-STZ injection.
A total of 25 adult (24-28g), transgenic mice with a genetic black six background were included. […]

[4] = tested on: experimental diabetic neuropathy; experiment: Lower extremity nerve histomorphology (sciatic and sural nerve) in STZ-diabetic mice; assay type: in vivo; settings: 30 mg/kg oral daily, five weeks post-diabetes induction
Description: In total, 20 mice were injected with 100 mg/kg bodyweight of streptozotocin (STZ, […], Sigma Aldrich) in 0.1M citrate buffer (pH 4.5) on two consecutive days respectively, to induce diabetes type 1^27. Prior to the first injection and in weekly intervals thereafter, all animals were weighted and underwent tail prick blood sugar measurements using a clinical grade monitoring system (Contour One, Ascensia Diabetes Care, Mississauga, Ontario) as previously described. Mice were considered diabetic when blood glucose was at least 15 mmol/L (270 mg/dl). Prior to diabetes induction the mice were block randomized into experimental groups (n=10 Foretinib treatment, n=5 vehicle treatment, n=5 non-treated diabetic control). An additional 5 non-diabetic animals served as a healthy control. Foretinib treatments started 1-week post-diabetes induction. Foretinib was prepared fresh daily by dissolving 6 mg Foretinib in 1 ml of 1% (Hydroxypropyl)-methyl cellulose (09963, Sigma Aldrich) and 0.2% sodium dodecyl sulfate ([…], Sigma Aldrich) in sterile H2O. […] A custom-trained deep learning model based on the open-source software AxonDeepSeg^29 determined axon diameter and myelin sheath thickness and g-ratio for entire nerve cross sections.

Structure (SMILES): COc1cc2c(Oc3ccc(NC(=O)C4(C(=O)Nc5ccc(F)cc5)CC4)cc3F)ccnc2cc1OCCCN1CCOCC1 [Foretinib, N1-[3-Fluoro-4-({6-methoxy-7-[3-(morpholin-4-yl)propoxy]quinolin-4-yl}oxy)phenyl]-N′1-(4-fluorophenyl)cyclopropane-1,1-dicarboxamide]
- axonal die-back under trophic deprivation [1]: prevents axonal die-back mechanisms
- motor neuron axon length and NMJ formation ([2]; 2 days old larvae exposed to Foretinib): longer and forms more NMJ
- swimming deficits ([2]; TDP-43 mutant larvae, data not shown): rescuing its swimming deficits
- intraepidermal nerve fiber density (IENFD), plantar skin ([3]; 30 mg/kg oral daily, 5 weeks post-diabetes induction, versus other diabetic groups): similarly reduced IENFD
- reduction in epidermal nerve fiber density compared to healthy mice ([3]; all diabetic groups incl. Foretinib 30 mg/kg/day oral, five weeks after diabetes induction): 25%
- peripheral nerve histomorphology (axon diameter, myelin sheath thickness, g-ratio) [4]: did not affect peripheral nerve histomorphology

— patent US20250281496A1, “METHODS OF TREATING NEUROPATHY USING FORETINIB AND COMPOSITIONS THEREOF” (INDIANA UNIVERSITY RESEARCH AND TECHNOLOGY CORPORATION, priority 2022, published 2025)
